Data published in ChEMBL document CHEMBL1201862, “PubChem BioAssay data set” (2004).
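Five concentrations, 48 hours, 96-well plates. GI50: concentration for 50% inhibition of growth.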 The source made the active and inactive calls. Rule as the data show it: active = GI50 up to about 1.1 µM and inactive = higher.

Tests used:
Assay in all cases: NCI tumour cell line growth inhibition, 48 h
[1] = tested on: OVCAR-8
[2] = tested on: HOP-62
[3] = tested on: SF-539
[4] = tested on: SNB-75
[5] = tested on: HCT-15
[6] = tested on: HOP-18
[7] = tested on: UACC-257
[8] = tested on: CCRF-CEM
[9] = tested on: U-251
[10] = tested on: OVCAR-3
[11] = tested on: OVCAR-5
[12] = tested on: K562
[13] = tested on: SK-MEL-5
[14] = tested on: A498
[15] = tested on: HCT-116
[16] = tested on: DMS-273
[17] = tested on: MOLT-4
[18] = tested on: NCI-H23
[19] = tested on: LXFL 529
[20] = tested on: SF-295
[21] = tested on: RXF 393
[22] = tested on: COLO 205
[23] = tested on: Malme-3M
[24] = tested on: KM12
[25] = tested on: LOX IMVI
[26] = tested on: SW-620
[27] = tested on: NCI-H522
[28] = tested on: CAKI-1
[29] = tested on: KM-20L2
[30] = tested on: OVCAR-4
[31] = tested on: XF498
[32] = tested on: A549
[33] = tested on: HCC 2998
[34] = tested on: 786-0
[35] = tested on: IGROV-1
[36] = tested on: SR
[37] = tested on: UO-31
[38] = tested on: TK-10
[39] = tested on: NCI-H226
[40] = tested on: NCI-H460
[41] = tested on: SK-MEL-2
[42] = tested on: M14
[43] = tested on: SNB-78
[44] = tested on: SN12C
[45] = tested on: SK-MEL-28
[46] = tested on: DLD-1
[47] = tested on: HOP-92
[48] = tested on: DMS-114
[49] = tested on: SK-OV-3
[50] = tested on: HT-29
[51] = tested on: UACC-62
[52] = tested on: MCF7
[53] = tested on: NCI/ADR-RES
[54] = tested on: RPMI-8226
[55] = tested on: SF-268
[56] = tested on: EKVX
[57] = tested on: SNB-19
[58] = tested on: M19-MEL
[59] = tested on: HL-60
[60] = tested on: ACHN

`CNCC(=O)Nc1ccc2c(c1)C(=O)c1ccc(NC(=O)CNC)cc1C2=O` was tested, and the GI50 [1] was 2.69 µM (inactive), the GI50 [2] was 2.9 µM (inactive) and the GI50 [3] was 3.1 µM (inactive). The GI50 [4] was 13.6 µM (inactive), the GI50 [5] was 7.62 µM and the GI50 [6] was < 0.01 µM (active). The GI50 [7] was 4.36 µM (inactive), the GI50 [8] was 2.74 µM (inactive) and the GI50 [9] was 2.7 µM (inactive). The GI50 [10] was 3.05 µM (inactive), the GI50 [11] was 17.5 µM (inactive) and the GI50 [12] was 1.96 µM (inactive). For the same molecule, the GI50 [13] was 4.68 µM (inactive), the GI50 [14] was 14.9 µM (inactive) and the GI50 [15] was 1.81 µM (inactive). The GI50 [16] was 2.6 µM (inactive), the GI50 [17] was 2.52 µM (inactive) and the GI50 [18] was 13.4 µM (inactive). For the same molecule, the GI50 [19] was 2.8 µM (inactive), the GI50 [20] was 5.3 µM (inactive) and the GI50 [21] was 7.31 µM (inactive). For the same molecule, the GI50 [22] was 2.37 µM (inactive), the GI50 [23] was 3.27 µM (inactive) and the GI50 [24] was 0.767 µM (active). For the same molecule, the GI50 [25] was 1.68 µM (inactive), the GI50 [26] was 2.56 µM (inactive) and the GI50 [27] was 1.59 µM (inactive). The GI50 [28] was 5.65 µM (inactive), the GI50 [29] was 5.3 µM (inactive) and the GI50 [30] was 1.91 µM (inactive). The GI50 [31] was 3.32 µM (inactive), the GI50 [32] was 11.2 µM (inactive) and the GI50 [33] was 4.72 µM (inactive). The GI50 [34] was 4.42 µM (inactive), the GI50 [35] was 16.6 µM (inactive) and the GI50 [36] was 1.96 µM (inactive). The GI50 [37] was 11.8 µM (inactive), the GI50 [38] was 17.3 µM (inactive) and the GI50 [39] was 7.57 µM (inactive). For the same molecule, the GI50 [40] was 3.77 µM (inactive), the GI50 [41] was 3.66 µM (inactive) and the GI50 [42] was 2.55 µM (inactive). The GI50 [43] was 3.05 µM (inactive), the GI50 [44] was 3.1 µM (inactive) and the GI50 [45] was 2.54 µM (inactive). The GI50 [46] was 9.64 µM (inactive), the GI50 [47] was 1.78 µM (inactive) and the GI50 [48] was 2.03 µM (inactive). For the same molecule, the GI50 [49] was 1.62 µM (inactive), the GI50 [50] was 4.42 µM (inactive) and the GI50 [51] was 10.3 µM (inactive).
`CC1(C)OC2CC(=O)OCC23C1CC(=O)C1(C)C3CCC2(C)C(c3ccoc3)OC(=O)C3OC321` (configuration not stated) was tested, and the GI50 [1] was 11.7 µM (inactive), the GI50 [52] was > 70.3 µM (inactive) and the GI50 [2] was > 125 µM (inactive). For the same molecule, the GI50 [3] was > 117 µM (inactive), the GI50 [4] was 64.7 µM (inactive) and the GI50 [5] was over 125 µM. The GI50 [6] was > 125 µM (inactive), the GI50 [53] was > 125 µM (inactive) and the GI50 [7] was 124 µM (inactive). For the same molecule, the GI50 [8] was > 125 µM (inactive), the GI50 [9] was > 125 µM (inactive) and the GI50 [10] was > 125 µM (inactive). The GI50 [11] was > 125 µM (inactive), the GI50 [12] was 78.9 µM (inactive) and the GI50 [13] was > 125 µM (inactive). For the same molecule, the GI50 [14] was > 125 µM (inactive), the GI50 [15] was > 125 µM (inactive) and the GI50 [16] was > 125 µM (inactive). For the same molecule, the GI50 [17] was > 125 µM (inactive), the GI50 [18] was > 125 µM (inactive) and the GI50 [20] was > 125 µM (inactive). For the same molecule, the GI50 [21] was > 117 µM (inactive), the GI50 [22] was > 125 µM (inactive) and the GI50 [23] was 123 µM (inactive). For the same molecule, the GI50 [24] was > 125 µM (inactive), the GI50 [25] was > 125 µM (inactive) and the GI50 [26] was > 125 µM (inactive). For the same molecule, the GI50 [27] was > 125 µM (inactive), the GI50 [28] was 16.1 µM (inactive) and the GI50 [29] was > 125 µM (inactive). The GI50 [30] was > 125 µM (inactive), the GI50 [54] was > 125 µM (inactive) and the GI50 [31] was > 125 µM (inactive). For the same molecule, the GI50 [32] was > 125 µM (inactive), the GI50 [33] was > 125 µM (inactive) and the GI50 [55] was > 125 µM (inactive). The GI50 [56] was > 58.1 µM (inactive), the GI50 [35] was > 125 µM (inactive) and the GI50 [37] was > 125 µM (inactive). For the same molecule, the GI50 [57] was > 125 µM (inactive), the GI50 [58] was > 125 µM (inactive) and the GI50 [59] was 101 µM (inactive). For the same molecule, the GI50 [39] was > 125 µM (inactive), the GI50 [40] was > 125 µM (inactive) and the GI50 [41] was > 125 µM (inactive). The GI50 [43] was > 125 µM (inactive), the GI50 [44] was > 39.5 µM (inactive) and the GI50 [45] was > 125 µM (inactive). The GI50 [46] was > 125 µM (inactive), the GI50 [48] was > 125 µM (inactive) and the GI50 [49] was > 125 µM (inactive). For the same molecule, the GI50 [50] was > 125 µM (inactive) and the GI50 [51] was > 125 µM (inactive).
`CCCCn1/c(=N/C(=S)N(C)C)ss/c1=N\C(=S)N(C)C` was tested, and the GI50 [1] was > 100 µM (inactive), the GI50 [2] was > 100 µM (inactive) and the GI50 [3] was > 100 µM (inactive). For the same molecule, the GI50 [4] was > 100 µM (inactive), the GI50 [5] was over 100 µM and the GI50 [6] was > 100 µM (inactive). The GI50 [7] was > 100 µM (inactive), the GI50 [8] was > 100 µM (inactive) and the GI50 [9] was > 100 µM (inactive). For the same molecule, the GI50 [11] was > 100 µM (inactive), the GI50 [12] was > 100 µM (inactive) and the GI50 [14] was > 100 µM (inactive). The GI50 [15] was > 100 µM (inactive), the GI50 [16] was > 100 µM (inactive) and the GI50 [17] was > 100 µM (inactive). For the same molecule, the GI50 [18] was > 100 µM (inactive), the GI50 [19] was > 100 µM (inactive) and the GI50 [20] was > 100 µM (inactive). For the same molecule, the GI50 [60] was > 100 µM (inactive), the GI50 [21] was > 100 µM (inactive) and the GI50 [23] was > 100 µM (inactive). The GI50 [24] was > 100 µM (inactive), the GI50 [25] was > 100 µM (inactive) and the GI50 [26] was > 100 µM (inactive). The GI50 [28] was > 100 µM (inactive), the GI50 [29] was > 100 µM (inactive) and the GI50 [30] was > 100 µM (inactive). For the same molecule, the GI50 [54] was > 100 µM (inactive), the GI50 [31] was > 100 µM (inactive) and the GI50 [32] was > 100 µM (inactive). The GI50 [33] was > 100 µM (inactive), the GI50 [34] was > 100 µM (inactive) and the GI50 [55] was > 100 µM (inactive). The GI50 [56] was > 100 µM (inactive), the GI50 [35] was > 100 µM (inactive) and the GI50 [36] was > 100 µM (inactive). For the same molecule, the GI50 [37] was > 100 µM (inactive), the GI50 [57] was > 100 µM (inactive) and the GI50 [38] was 6.19 µM (inactive). The GI50 [58] was > 100 µM (inactive), the GI50 [59] was > 100 µM (inactive) and the GI50 [39] was 7.28 µM (inactive). The GI50 [40] was > 100 µM (inactive), the GI50 [41] was > 100 µM (inactive) and the GI50 [42] was > 100 µM (inactive). For the same molecule, the GI50 [43] was > 100 µM (inactive), the GI50 [44] was > 100 µM (inactive) and the GI50 [45] was > 100 µM (inactive). For the same molecule, the GI50 [46] was > 100 µM (inactive), the GI50 [47] was > 100 µM (inactive) and the GI50 [49] was > 100 µM (inactive). The GI50 [50] was > 100 µM (inactive) and the GI50 [51] was > 100 µM (inactive).
